# Data reported in PMC11330772, “Unveiling the kinetic versatility of aryl-alcohol oxidases with different electron acceptors” (Frontiers in Bioengineering and Biotechnology, 2024).
# Read-outs that look alike come from different tables or passages of the source.
# Key:
# [1] = target: T1, PeAAO (Pleurotus eryngii, UniProt O94219)
# Text: (§4) Data were globally fitted to an equation describing a one-step process.
# [2] = target: T2, BaAAO (Bjerkandera adusta, UniProt A0ABF7PQ87)
# Text: as §4
# [3] = target: T1, PeAAO; assay: Steady-state bi-substrate kinetics of alcohol oxidation; format: biochemical
# Procedure: (§1) Bi-substrate kinetics were analyzed by concurrently varying the concentration of the aforementioned alcohols and electron acceptors. Oxygen assays were carried out in a screw-cap cuvette where the alcohol was equilibrated with the desired concentration of O2 by bubbling with the appropriate O2/N2 gas mixture (4%, 10%, 21%, 44%, and 100% O2) for 10 min. Alcohol oxidation was initiated by the addition of the enzyme and followed at 285 nm for 4-methoxybenzaldehyde production and 295 nm in the case of 3-Cl-4-methoxybenzaldehyde (Δε285 = 16,950 M^−1cm^−1 and Δε295 = 15,000 M^−1cm^−1, respectively) ([Ferreira et al., 2005]). […]. BQ solutions were prepared immediately prior to use and protected from the light to avoid photodegradation.
# (§2) The initial rates for bi-substrate kinetics were fitted to Eq. 1 or Eq. 2, which describe sequential and ping-pong kinetic mechanisms, respectively. […]
# [4] = target: T2, BaAAO; assay: as above; format: biochemical
# Procedure: as §1, §2
# [5] = target: T1, PeAAO; assay: Stopped-flow reductive half-reaction (flavin reduction by alcohol); format: biochemical
# Procedure: (§3) Studies on the reductive half-reaction were performed by mixing AAO (∼10 μM, final concentration) with increasing concentrations of alcohols under anaerobic conditions. Observed rate constants (k obs) were calculated using global analysis and numerical integration methods, simultaneously utilizing all spectral data in the 400–800 nm region along time evolution using the ProKineticist software from Applied Photophysics.
# [6] = target: T2, BaAAO; assay: as above; format: biochemical; conditions: anaerobic, 50 mM sodium phosphate, pH 6.0, 25 °C
# Procedure: as §3
# [7] = target: T2, BaAAO; assay: Redox state of the enzyme during turnover (stopped-flow); format: biochemical; conditions: in the presence of O2 (air), saturating alcohol, pH 6.0, 25 °C
# [8] = target: T1, PeAAO; parameters: method as in Carro et al. (2018a); conditions: pH 6.0, 12 °C, ref Carro et al. (2018a), cited from earlier work
# [9] = target: T2, BaAAO; assay: biochemical
# Text: as §4
# [10] = target: T2, BaAAO; parameters: method as in Ferreira et al. (2023); conditions: alcohol substrate 4-methoxybenzyl alcohol, 50 mM phosphate, pH 6.0, 25 °C, ref Ferreira et al. (2023); cited from earlier work
# [11] = target: T1, PeAAO; conditions: pH 6.0, 12 °C, cited from earlier work
# [12] = target: T1, PeAAO; assay: Stopped-flow oxidative half-reaction (flavin reoxidation by O2 or BQ); conditions: PeAAO
# [13] = target: T1, PeAAO; parameters: method as in Ferreira et al. (2023); conditions: alcohol substrate 4-methoxybenzyl alcohol, 50 mM phosphate, pH 6.0, 25 °C, ref Ferreira et al. (2023); cited from earlier work
# [14] = substrate: O=C1C=CC(=O)C=C1; assay: Steady-state bi-substrate kinetics of alcohol oxidation; format: biochemical, Bjerkandera adusta; conditions: other: BaAAO, alcohol substrate 3-Cl-4-methoxybenzyl alcohol, 50 mM phosphate, pH 6.0, 25 °C
# Procedure: as §1, §2
# [15] = substrate: COc1ccc(CO)cc1Cl; assay: as above; format: biochemical, Bjerkandera adusta; conditions: other: BaAAO, 50 mM phosphate, pH 6.0, 25 °C
# Procedure: as §1, §2
# [16] = 50 mM sodium phosphate, pH 6.0, 12 °C
# [17] = anaerobic, 50 mM sodium phosphate, pH 6.0, 25 °C
# [18] = alcohol substrate 3-Cl-4-methoxybenzyl alcohol, 50 mM phosphate, pH 6.0, 25 °C
# [19] = BaAAO, alcohol substrate 3-Cl-4-methoxybenzyl alcohol, 50 mM phosphate, pH 6.0, 25 °C
# T1 sequence (O94219 entry or part of it): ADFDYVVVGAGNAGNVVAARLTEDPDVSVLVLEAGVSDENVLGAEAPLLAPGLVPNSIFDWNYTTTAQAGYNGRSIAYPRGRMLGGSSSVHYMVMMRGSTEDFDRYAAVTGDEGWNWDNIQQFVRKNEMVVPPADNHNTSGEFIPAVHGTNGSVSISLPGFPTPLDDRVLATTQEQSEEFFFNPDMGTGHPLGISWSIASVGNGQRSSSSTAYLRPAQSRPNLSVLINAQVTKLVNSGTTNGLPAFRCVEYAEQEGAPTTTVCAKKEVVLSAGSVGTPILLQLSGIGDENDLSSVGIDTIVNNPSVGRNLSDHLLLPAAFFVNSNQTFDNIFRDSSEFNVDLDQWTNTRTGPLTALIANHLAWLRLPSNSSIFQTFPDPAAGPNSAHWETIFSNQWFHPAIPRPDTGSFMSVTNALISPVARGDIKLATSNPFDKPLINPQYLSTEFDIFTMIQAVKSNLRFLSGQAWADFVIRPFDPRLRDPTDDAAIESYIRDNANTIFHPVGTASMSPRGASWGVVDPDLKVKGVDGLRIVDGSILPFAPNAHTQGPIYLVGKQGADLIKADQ
molecule,measurement,setting,value
COc1ccc(C(=O)O)cc1Cl [3-Cl-4-methoxybenzoic acid],k on,[1]; [16],37 ± 1 s⁻¹ mM⁻¹
same,k off,"[1]; 50 mM sodium phosphate, pH 6.0, 12 °C, nd = not detected",no dissociation
same,k off,[2]; [16],13 ± 1 s⁻¹
same,k on,[2]; [16],47 ± 2 s⁻¹ mM⁻¹
same,Kd,"[2]; read-out: K d(acid), K d = k off/k on, pH 6.0, 12 °C",276 ± 38 µM
"COc1ccc(CO)cc1Cl [3-Cl-4-methoxybenzyl, 3-chloro-4-methoxybenzyl alcohol]",k cat lower than for the other substrate (4-methoxybenzyl alcohol),[3],4 fold
same,turnover of BaAAO higher than PeAAO,[4]; O2 as electron acceptor,2 fold
same,k red,[5]; [17],96 ± 3 s⁻¹
same,k red/K d(alcohol),[5]; [17],"4,486 ± 725 s^−1mM^-1"
same,Kd,"[5]; anaerobic, 50 mM sodium phosphate, pH 6.0, 25 °C, read-out: K d(alcohol)",21 ± 3 µM
same,k red higher than k cat,[5]; turnover with BQ,4 fold
same,k red higher than k cat,[5]; turnover with O2,2 fold
same,k red,[6],121 ± 11 s⁻¹
same,k red/K d(alcohol),[6],404 ± 127 s⁻¹ mM⁻¹
same,Kd,[6]; read-out: K d(alcohol),300 ± 91 µM
same,reduced form of the enzyme during turnover,[7],≤ 60%
"COc1ccc(C(=O)O)cc1 [4-Methoxybenzoic acid, 4-methoxybenzoic acid]",k off,[8]; 50 mM sodium phosphate,3 ± 1 s⁻¹
same,k on,[8]; 50 mM sodium phosphate,18 ± 1 s⁻¹ mM⁻¹
same,Kd,"[8]; K d = k off/k on, read-out: K d(acid)",149 ± 10 µM
same,k on slower than that of 3-Cl-4-methoxybenzoic acid,[1],approximately 2 fold
same,Kd,[9],1.81 ± 0.197 mM
same,k off,[9]; pH 6,18 ± 2 s⁻¹
same,k on,[9]; pH 6,10000 ± 1000 M⁻¹ s⁻¹
same,k on slower than that of 3-Cl-4-methoxybenzoic acid,[2],~5 fold
O=O [O2],K m(acceptor),[10],134 ± 5 µM
same,k cat/K m(acceptor),[10],549 ± 23 s⁻¹ mM⁻¹
same,K m(acceptor),[3]; [18],67 ± 2 µM
same,k cat/K m(acceptor),[3]; [18],647 ± 22 s⁻¹ mM⁻¹
same,K m(acceptor),[4]; [19],225 ± 8 µM
same,k cat/K m(acceptor),[4]; [19],312 ± 12 s⁻¹ mM⁻¹
same,k ox(O2),"[11]; PeAAO reduced by 3-Cl-4-methoxybenzyl alcohol, ref Ferreira et al. (2015)",790 ± 20 ^b s^−1mM^−1
same,k ox(O2),"[11]; PeAAO reduced by 4-methoxybenzyl alcohol, ref Carro et al. (2018a)",770 ± 40 ^a s^−1mM^−1
same,"reverse rate constant (k rev), y-axis intercept of reoxidation",[12],17 s⁻¹
same,K m(acceptor),[13],176 ± 1 µM
same,k cat/K m(acceptor),[13],"1,139 ± 35 s^−1mM^−1"
BaAAO (Bjerkandera adusta) (protein) MVTFFTDASQLPATVYDFIVVGAGNAGNVVAARLTEDWKTTVLLIEAGISHEGIDSVAVPGLVLDNLPFSPVMWNYTTVPQAALDNRPIPYAKGRVVGGSSSVNFMEYTRSSNTEYDRWANLTGDAGWSWKNMEQYYLKNSRLVPPQDGHNTTGDVDPSVHGYGPVPLSLVGTPNPLDARMRAATQAPGAEFPFQLDMNGGDMIGFGIVQSTILNGERMHSGKAFLEPAMSRPNLHVLIENTVTRLIQTKTTNGLPSFMKVEFARDALSARSVVTATKEVVLSAGSIGTPQILMLSGIGDREELTAIGVNVTVDNPAVGKHLKDHPIMANYFQVNSNETYDDIFRDRDVSNTFLAQWKQNRTGPMVASPSTGLGFFRLPDNDTIFERFADPSPGEGAGHIELILSNQWTPEVQIPPATGSFLTVHAVVVSPASEGTVRLNSTNPFEFPLLDPQLLSSEFDQHTIIHAARLARQFVSSSPWADFVESRTGIIGDTDDDEADLLAAARQATVTIWHPMCTARMAPKGSTDGAIDPDLLVKGVSGLRVIDGAALPAIPATHPMAAIYLLAERGSDLIKQKWKL,Km,[14],66 ± 12 µM
same,Km,[15]; BQ as e− acceptor (anaerobic),26 ± 4 µM
same,kcat,[15]; BQ as e− acceptor (anaerobic),23 ± 1 s⁻¹
same,kcat/Km,[15]; BQ as e− acceptor (anaerobic),910 ± 146 s⁻¹ mM⁻¹
same,Km,[15]; O2 as e− acceptor,94 ± 4 µM
same,kcat,[15]; O2 as e− acceptor,70 ± 1 s⁻¹
same,kcat/Km,[15]; O2 as e− acceptor,747 ± 32 s⁻¹ mM⁻¹
